# Entries after “also recorded” stand apart in the source; their conditions may differ.
# What was measured:
# [1] = test system: A549 cell spheroids; test: 3D tumor spheroid assay; assay type: cell-based, human; details: 5 μM, 12 days
# Description: A 3D spheroid model was employed to investigate the effect of longer term MD13 treatment in a more complex model for tumor growth. The 3D spheroid model was established using A549 cancer cells by a method adapted from Feng et al.[48] The spheroids were grown over a 12‐day period in absence or presence of PROTAC MD13. Each spheroid was prepared from about 1000 A549 cells. After three‐day incubation, these spheroids were treated with 1, 2, or 5 μM of MD13 with 72 hours intervals over 12 days. Spheroid growth was monitored by measuring the diameter and this was compared to day 0 of the treatment. The tumor spheroids in MD13 treated groups were significant smaller compared to the control group (Figure 5 B and Figure S9). With continuous exposure to 1, 2, or 5 μM of MD13 for 12 days, the growth of the spheroid tumor volume was inhibited by 42 %, 53 %, and 81 % compared with control group, respectively. […]
# Tumor spheroid assay. A549 cells (1000 cells/well) were seeded onto a 96-well round-bottomed ultra low attachment plate (Corning). After 2 days of incubation without disturbance, the spheroid was treated with indicated compound every 3 days. […]
# (1 picture or pasted object on this page, not shown here) […]
# inverted microscope (Nikon Eclipse Ti) connected with a NIS-elements software. The data were analyzed and plotted with Graphpad Prism8. […]
# cells were seeded in an ultralow attachment 96-well round-bottomed plate (1000 cells/well) to generate tumor spheroids (a single spheroid per well). After initiation, the spheroids were treated with different compounds at the indicated concentrations every three days. DMSO was used as vehicle control. The day of the first treatment was indicated as day 0. (A) Representative images were obtained at the indicated intervals using an inverted microscope. Scale bar: 500 μm. (B) Analysis was carried out using NIS-Elements AR 3.1 software, and growth curves were obtained relative to the untreated spheroids (day 0) and plotted with GraphPad Prism 8. Values are shown as means ± SD (n = 3 spheroids/time point, **p < 0.01 vs control). […]
# [2] = test system: ERK phosphorylation; test: ERK phosphorylation by western blot; assay type: cell-based, human; details: A549, 2 μM; 3 and 4 for 24 h, MD15 for 6, 24 or 48 h
# Description: The effect of treatment with MIF‐directed PROTAC MD13 on MIF‐related signaling pathways was investigated by assessment of ERK phosphorylation using western blot analysis. […] Thus treatment with the MIF‐directed PROTAC MD13 inhibits ERK phosphorylation as a MIF‐related signaling event. […]
# ERK signaling pathway study. A549 cells (2x10^5 cells per well) were seeded into each well of a 6-well plate with 2 mL RPMI-1640 medium containing 10% FBS (Costar Europe, Badhoevedorp, The Netherlands), and 1% penicillin/streptomycin solution (Corning). After overnight culturing, the cells were treated with MD13, MD15, or DMSO for the time indicated.
# After that, cells were lysed by RIPA buffer containing 1× PhosSTOP and protease inhibitor (PI) cocktail (Roche, Mannheim, Germany). The BCA Protein Assay Kit (Pierce, Rockford IL, USA) was used to determine the protein concentration. 30 µg protein was separated by a pre-cast 10% NuPAGE Bis-Tris gel (Invitrogen, USA) and then transferred to a polyvinylidene difluoride (PVDF) membrane. After blocking with 5% of skimmed milk for 1 hour at room temperature and incubation with the appropriate primary antibody (pERK, #9101, Cell Signaling, 1:1000; GAPDH, #97166, Cell Signaling, 1:10000) overnight at 4 °C, the membrane was treated with an HRP-conjugated secondary goat anti-rabbit antibody (#P0448, Dako, 1:2000) or rabbit anti-mouse antibody (#P0260, Dako, 1:2000) at room temperature for 1 hour.
# The protein bands were visualized with enhanced chemiluminescence (ECL) solution (GE Healthcare). The figures were quantified with imageJ software based on grayscale. […]
# [3] = test system: A549 cells; test: CyQUANT cell proliferation assay; assay type: cell-based, human; details: concentrations up to 20 μM, 72 hours
# Description: S8. Cell growth, cell cycle and pERK signaling study
# Cell proliferation was measured with the CyQUANT® Direct Cell Proliferation Assay Kit (Thermo Fisher, #C35011). A549 cells were cultured in 96-well plates at a density of 1,000 cells/well and treated with different concentrations of MIF PROTAC (0.02-20 μM) for 72 h.
# Cells were incubated with detection reagent (100 μL) for 60 min at 37 °C with 5% CO2. The fluorescence of each well was read at 485/535nm by plate reader (BioTek).
# Figure S8. Cells were seeded with a density of 1000 cells per well in a 96-well plate. After overnight incubation, the cells were treated with various concentration of MD13 for 72 hours.
# The resulting cells were quantified by CyQUANT® cell proliferation assays and compared with the vehicle (DMSO) control (n=3). […]
# (also on this page, place not known: (0.02 -20 CO 2. (20 µM) 4 (20 µM) µM 20 µM 0.01 µM 0.08 µM 0.74 µM 6.7 µM 20 µM 0 50 100 Cell (%) H441 n.s. * * ** *** * n.s. MD15 96 -well MD13 proliferation control 96 -well round - 2 3) […]
# (1 picture or pasted object on this page, not shown here)
# [4] = biological target: T1, MIF (Homo sapiens, UniProt P14174); test: MIF degradation in A549 cells, western-blot; assay type: cell-based; parameters: endogenous in cells; host or cells: A549 (ATCC CCL-185); details: A549 cells
# T1 sequence (P14174 2-115 limits assumed): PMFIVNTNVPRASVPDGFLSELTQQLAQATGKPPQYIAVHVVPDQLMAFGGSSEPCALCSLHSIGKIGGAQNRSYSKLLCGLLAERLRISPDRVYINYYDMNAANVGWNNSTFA
# Description: The concentration dependence of PROTAC MD13‐mediated induction of MIF degradation in A549 cells was investigated using western‐blot. […] The MIF levels were normalized to the vehicle treated control and plotted to the respective MD13 concentrations. This provided a DC50 of around 100 nM and a maximal degradation of around 90–95 % at concentrations higher than 1 μM (Figure 3 B). The DC50 of MD13 measured by ELISA assay was about 200 nM (Figure 3 C), which is in line with the result from western‐blot. […]
# Cell lysates were prepared using the protocol described above. About 10−40 μg of total protein was mixed with the 4× Laemmli Loading Dye (250 mM Tris, pH 6.8, 40% glycerol, 5% SDS, 0.005% bromophenol blue, 4% β-mercaptoethanol) and heated at 95−100 °C for 5 min and loaded onto a 12% Bis-Tris gel (Bio-Rad Laboratories, #4561084) and proteins were separated at 120V. Afterwards, proteins were transferred to polyvinylidene fluoride (PVDF) membranes, subsequently non-specific antibody binding was blocked with 5% nonfat dry milk (BIO-RAD, #1706404) in TBST buffer and incubated overnight at 4 °C with one of the following primary antibodies: anti-MIF (1:1000, ThermoFisher, #PA5-27343 ) or anti-β-actin (1:10000 Cell Signalling, #8457). The membranes were further incubated with a goat anti-rabbit HRP-conjugated secondary antibody (1:2000, DAKO, p0448) for 2 h at room temperature. Proteins were visualized with an ECLTM Prime Western Blotting System (GE Healthcare #RPN2232). The immunoblot was generated by ChemiDoc MP Imaging Systems (Bio-Rad) and analyzed by the ImageJ software. […]
# As a control, the same experiment was repeated and analyzed by a western-blot assay (Figure 3B). The potency estimated from the Western blot assay was 1 µM (Figure 3C), which is consistent with the result from the ELISA assay. The “Hook effect” […]
smiles,measurement,setting,value
"Nc1cccc2c1C(=O)N(C1CCC(=O)NC1=O)C2=O (centres unmarked) [compound 4, pomalidomide]",influence on spheroid tumor growth,[1],no significant influence
same,effect on pERK levels,[2],no significant decrease
same,effect on cell proliferation,[3],no effect; also recorded: no or little effect
same,rescue of MD9 mediated MIF degradation,"[4]; 2 hours pretreatment (1 100 µM, 3 50 µM, 4 50 µM, Bortezomib), then 10 µM MD9 12 h",partial to complete rescue; also recorded: rescued
same,rescue of MD13 mediated MIF degradation,"[4]; co-treatment (Bortezomib) or 1 hour pretreatment (3, 4) with MD13",rescued MIF from degradation; also recorded: able to abolish the MD13 triggered degradation
